Data reported in PMC4712073 (Analytical and bioanalytical chemistry, 2015).
Read-outs that look alike come from different tables or passages of the source.

What was measured:
SIRT5 [1] = molecular target: T1, SIRT5 (Homo sapiens, UniProt Q9NXA8); conditions: reported as SIRT5 inhibitor; cited from earlier work
T1 sequence (Q9NXA8 37-310): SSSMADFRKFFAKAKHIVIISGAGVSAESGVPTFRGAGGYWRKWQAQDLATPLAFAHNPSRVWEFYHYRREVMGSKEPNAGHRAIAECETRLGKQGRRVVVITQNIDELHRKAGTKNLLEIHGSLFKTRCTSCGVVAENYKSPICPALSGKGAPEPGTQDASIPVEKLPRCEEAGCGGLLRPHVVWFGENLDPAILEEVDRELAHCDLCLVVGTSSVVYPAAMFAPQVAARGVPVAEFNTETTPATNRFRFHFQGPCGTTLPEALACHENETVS

SIRT5 [2] = molecular target: T1, SIRT5; assay: Peptide-based SIRT5 desuccinylation assay by droplet microchip electrophoresis; assay type: biochemical

**Q.** With `N#C/C(=C\c1ccc(-c2cc(Cl)ccc2Cl)o1)C(=O)Nc1cccc2ncccc12` [AGK-2] as the compound, how does the IC50 (SIRT5 [1]) read?
**A.** > 100 µM

**Q.** Which IC50 (SIRT5 [2]; Prestwick hits, dose-response analysis 0.1 to 100 µM) does the source give for `CCCCCC[C@H]1C(=O)O[C@H](C)[C@H](NC(=O)c2cccc(NC=O)c2O)C(=O)O[C@@H](C)[C@@H]1OC(=O)CC(C)C` [antimycin A] here?
**A.** near the maximum tested dose

**Q.** Which “SIRT5 inhibition (in words)” value (SIRT5 [2]; pilot screening, chosen as positive control (10 µM)) does the source give for `CCCCCCCCCCCCCCCc1cccc(O)c1C(=O)O` [anacardic acid] here?
**A.** potent inhibitor
